Patent publication US20020052354A1, “Paramagnetic DOTA derivatives, pharmaceutical agents that contain the latter, process for their production, and their use for MR imaging of necrosis and infarction” (Schering AG, priority 2000, published 2002)

What was measured:
[1] = tested on: infarction areas; conditions: Circulation, Vol. 90, No. 4, 1994; cited from earlier work
[2] = Determination of relaxivity R1 and R2 (Minispec PC 20); format: physicochemical; conditions: bovine plasma; 40° C.; 0.47 tesla; n = 3
Procedure: Determination of Relaxivity R1 [Lmmol^−1 s^−1] and R2 [Lmmol^−1 s^−1]
Measurement at 40° C.; 0.47 tesla
T1-sequence 180°-TI-90°, inversion recovery

[3] = in vivo; cited from earlier work

Relaxivity R1 [2] [Lmmol^−1 s^−1]	Relaxivity R2 [2] [Lmmol^−1 s^−1]	Substance	visualization of infarction areas [1]	deposition in the skin (photosensitization and discoloration) [3]
15.3 ± 0.3	16.3 ± 0.2	Gd-mesoporphyrin [1c, DE 4232925]	readily visualize infarction areas	tend to be deposited in the skin
–	–	Mn-tetraphenyl-porphyrin [Mn-TTP]	readily visualize infarction areas	–
17.0 ± 0.1	20.2 ± 0.6	N,N-Bis[1,4,7-tris(carboxylatomethyl)-1,4,7,10-tetraazacyclododecane-Gd-complex-10-(3-aza-4-oxo-hexan-5-ylic)-acid]-4,4′-methylene-N′,N′-bis[(3-methoxy)-2-naphtoic acid]-tetrahydrazide [Example 4]	–	–
22.8 ± 0.8	29.2 ± 1.1	N-(1,4,7,-Tris(carboxylatomethyl)-1,4,7,10-tetraazacyclododecane-Gd-complex-10-[1-carboxylate-1-[3-oxapropionic acid)-phenyl]-methyl-N′-[3-(methoxy),2-naphthoic acid]-dihydrazide, sodium salt [Example 11]	–	–
